Here are results for 4 molecules from patent US20020115649A1, “Use of texaphyrins in macrophage-mediated disease” (Pharmacyclics, Inc., priority 1998, published 2002).

The nature of one data set: Redox potentials listing. It counts as physicochemical. An excerpt: Texaphyrin is a known radiosensitizer. Not wanting to be bound by theory, texaphyrin is thought to act as a radiosensitizer in the following manner. Oxygen is the ultimate electron acceptor in physiological systems. However, texaphyrins have a redox potential below that of oxygen.
Data set [1] deals with restenosis of balloon-injured carotid artery. As to the kind of experiment: Radiation therapy of balloon-injured rat carotid artery in preventing restenosis. It counts as in vivo, Sprague-Dawley male rats. The settings on record: 2 weeks post-treatment. An excerpt: The rat carotid model was used for the studies. Sprague-Dawley male rats weighing about 400-450 g were anesthetized and maintained with Ketamine/Rompun cocktail via the animal's tail vein. The rats were shaved to expose the chest and neck, and a midline incision was made to expose the left common carotid artery, the external carotid artery, and the internal carotid artery. The internal carotid artery was temporally ligated. A small incision was made in the external carotid artery and a 2F Fogarty arterial embolectomy balloon catheter (Baxter Cardiovascular Group, Irvine, Calif.) was introduced from the external carotid artery to the common carotid artery. The balloon was inflated with 0.2 ml of saline and withdrawn from near to the common carotid bifurcation with a rotating motion to produce uniform endothelial denudation and medial stretching in the common carotid artery. After 3 passages, the catheter was removed, the external carotid artery was ligated, and the internal carotid artery was untied. The incision was then closed.
GdT2BET (2mM in 5% mannitol) at 20 μmol/kg was injected via the tail vein 22 hours following balloon denudation of the carotid artery. Radiation therapy was performed 2 hours after the gadolinium texaphyrin injection. The treatment area was marked and a 250 kV X-ray radiation machine was used. […]

A short description of data set [2]: Cardiac toxicity study for texaphyrin and doxorubicin. It counts as in vivo, Sprague Dawley rats. The following applies: 20 micromoles/kg i.v. 1 hour after doxorubicin 1 mg/kg, once a week for twelve weeks; versus doxorubicin alone.
Method: To test whether gadolinium texaphyrin exacerbates cardiac toxicity, Sprague Dawley rats were injected intravenously either with 5% mannitol (10 ml/kg, n=6), or doxorubicin (1 mg/kg, n=14), or doxorubicin (1 mg/kg) followed 1 hour later by gadolinium texaphyrin (20 micromoles/kg, n=14). The dosing schedule was repeated once a week for twelve weeks. Animals were sacrificed one week post the last dose, and hearts were fixed in formalin.
The test system of data set [3] is macrophage of restenotic tissue. As to the kind of experiment: Photodynamic therapy of balloon-induced iliac artery lesions (local delivery plus intravascular light). It counts as in vivo, New Zealand White rabbits. The method, then: Bilateral iliac artery lesions were induced in 9 male New Zealand White rabbits (NZW) after being on a high cholesterol diet (1%, Dyets, Bethlehem, Pa.) for 3 weeks. Each rabbit was anesthetized using a mixture of ketamine […]. The right carotid artery was exposed, carefully excised and a 5 Fr sheath (USCI) inserted into the descending aorta under fluoroscopic guidance. A 3.0 mm angioplasty balloon was advanced into the right or left iliac artery and then inflated distal to the deep femoral artery three times at 8 atm for 30 seconds. Subsequently, the same procedure was repeated in the contralateral iliac artery. Animals were maintained on the high cholesterol diet.
Six weeks after the denudation, each rabbit was reanesthetized. The left carotid artery was exposed, carefully excised and a 6 Fr sheath (USCI) inserted into the descending aorta under fluoroscopic guidance. A local drug delivery balloon (3 mm, Scimed, Minneapolis, Minn.) was advanced to the left or right iliac artery and placed at the same position as the previous balloon injury site. The proximal end of the delivery catheter was placed at the internal iliac artery under fluoroscopic control as a landmark reference. The balloon was inflated to 6 atm and 1 μmol/kg lutetium texaphyrin (LuT2BET) (2 mM in 5% mannitol) was infused intraarterially adjacent to the atheroma at a rate of 0.2 ml/min. Fifteen minutes post infusion a 0.9 mm optical fiber with a 3 cm cylindrical diffuser (Laserscope Inc., San Jose, Calif.) connected to an argon pumped dye laser (732 nm, Coherent Inc., Palo Alto, Calif.) delivered intravascular light at 180 J/cmF. One rabbit served as a light alone (no LuT2BET) control.
Two weeks following light treatment, each animal was euthanized and both iliac arteries were carefully removed from the adjacent tissue. Care was taken to harvest the exact portion of the artery where local drug delivery occurred by matching the anatomy with the respective fluoroscopic picture. The contralateral artery in the LuT2BET-treated rabbit served as a sensitizer alone control vessel. The vessels were fixed in 10% buffered formalin, embedded in paraffin and stained sequentially with RAM 11 (an antibody that binds with a cytoplasmic antigen in rabbit macrophages (DAKO)), and hematoxylin and eosin (H&E) for light microscopic analysis and planimetry.

The nature of data set [4]: Maximum tolerated dose of lutetium texaphyrin in one study. The following applies: intravenous injection; determined in one study. It counts as in vivo. The method, then:
Administration for Photodynaminc Therapy: By way of example, lutetium texaphyrin is administered in solution containing 2 mg/ml optionally in 5% mannitol, USP. Dosages of about 1.0 or 2.0 mg/kg to about 4.0 or 5.0 mg/kg, preferably 3.0 mg/kg may be employed, up to a maximum tolerated dose that was determined in one study to be 5.2 mg/kg. The texaphyrin is administered by intravenous injection, followed by a waiting period of from as short a time as several minutes or about 3 hours to as long as about 72 or 96 hours (depending on the treatment being effected) to facilitate intracellular uptake and clearance from the plasma and extracellular matrix prior to the administration of photoirradiation.

Data set [5] concerns artery closure after angioplasty. The settings on record: in vivo; cited from earlier work.

Regarding `CC(=O)O.CC(=O)O.CCc1c(CC)c2cc3nc(cnc4cc(OCCOCCOCCOC)c(OCCOCCOCCOC)cc4ncc4nc(cc1[n-]2)C(CCCO)=C4C)C(C)=C3CCCO.[Gd]` [GdT2B2], the redox potential result in “Redox potentials listing” was “+0.08 V”.

Consider `CC(=O)[O-].CC(=O)[O-].CCc1c(CC)c2cc3nc(cnc4cc(OCCOCCOCCOC)c(OCCOCCOCCOC)cc4ncc4nc(cc1[n-]2)C(CCCO)=C4C)C(C)=C3CCCO.O.[Gd+3]` [GdT2BET], for which the “restenosis in H&E sections, animals of four treated” value in data set [1] (20 μmol/kg i.v. 22 hours after balloon denudation, 7 Gray X-ray 2 hours later, controls 100% restenosis) is reported as “three had no evidence of restenosis”. Moreover, the “restenosis, lumen circumference affected in the fourth animal” value in data set [1] (20 μmol/kg i.v. plus 7 Gray) is “up to 40%”. The “cardiac toxicity (histologic evaluation)” value in data set [2] is given as “did not significantly exacerbate cardiac toxicity”.

For the molecule `CC(=O)[O-].CC(=O)[O-].CCc1c(CC)c2cc3nc(cnc4cc(OCCOCCOCCOC)c(OCCOCCOCCOC)cc4ncc4nc(cc1[n-]2)C(CCCO)=C4C)C(C)=C3CCCO.O.[Lu+3]` [LuT2BET], the “macrophages in treated lesion in intima (RAM 11 quantitative analysis)” value in data set [3] (1 μmol/kg intraarterial plus 732 nm light, two weeks after light, versus 21±18%, P<<0.01) was determined as 5.1±5.3%. Moreover, the “macrophages in treated lesion in media (RAM 11 quantitative analysis)” value in data set [3] (1 μmol/kg intraarterial plus 732 nm light, two weeks after light, versus 22±20%, P<<0.01) came out at 7.7±10%. Besides, the “Mean % plaque area in the treated segments” value in data set [3] (1 μmol/kg intraarterial, 732 nm light 15 min post infusion, two weeks after light, nontreated segments 81±12%, P<<0.01) is given as 73±10%. Also, in data set [3] (with photoirradiation), the “destruction of activated macrophages” value is “selectively destroys activated macrophages”. In data set [4], this molecule gave a maximum tolerated dose of 5.2 mg/kg.

B1: Abciximab (antibody, chains of the INN, looked up, V domains shown)
VH: EVQLQQSGTVLARPGASVKMSCEASGYTFTNYWMHWVKQRPGQGLEWIGAIYPGNSDTSYIQKFKGKAKLTAVTSTTSVYMELSSLTNEDSAVYYCTLYDGYYVFAYWGQGTLVTVSA
VL: EIVLTQSPVTLSVTPGDSVSLSCRASRDISNNLHWFQQTSHESPRLLIKYASQSMSGIPSRFSGSGSGTDFTLSINSVETEDFGMYFCQQTNSWPYTFGGGTKLEIK
modifications: Fab
For the molecule B1, the “reduction of the risk of artery closure after angioplasty” value in data set [5] is listed as “up to 70%”.
